In patent US20120009613A1, “PHARMACEUTICAL COMPOSITION FOR MODULATING THE ACTIVITY OF A NOVEL TRIGLYCERIDE HYDROLASE” (Karl-Franzens-Universitat Graz, priority 2004, published 2012):
Each block holds one molecule with its values, some of them ahead of it.

Tests used:
Format in all cases: biochemical
[1] = target: T1, HSL (Mus musculus, UniProt P54310); assay: TG hydrolase activity assay, cytosolic fractions of HepG2 cells infected with adenovirus coding for His-tagged HSL, radiolabeled triolein substrate; details: 1M KCl vs absence (control), FIG. 5
T1 construct: His-tag; expressed in transfected cells; host or cells: HepG2 cells infected with recombinant adenovirus; cytosolic fraction
T1 sequence (P54310 1-759): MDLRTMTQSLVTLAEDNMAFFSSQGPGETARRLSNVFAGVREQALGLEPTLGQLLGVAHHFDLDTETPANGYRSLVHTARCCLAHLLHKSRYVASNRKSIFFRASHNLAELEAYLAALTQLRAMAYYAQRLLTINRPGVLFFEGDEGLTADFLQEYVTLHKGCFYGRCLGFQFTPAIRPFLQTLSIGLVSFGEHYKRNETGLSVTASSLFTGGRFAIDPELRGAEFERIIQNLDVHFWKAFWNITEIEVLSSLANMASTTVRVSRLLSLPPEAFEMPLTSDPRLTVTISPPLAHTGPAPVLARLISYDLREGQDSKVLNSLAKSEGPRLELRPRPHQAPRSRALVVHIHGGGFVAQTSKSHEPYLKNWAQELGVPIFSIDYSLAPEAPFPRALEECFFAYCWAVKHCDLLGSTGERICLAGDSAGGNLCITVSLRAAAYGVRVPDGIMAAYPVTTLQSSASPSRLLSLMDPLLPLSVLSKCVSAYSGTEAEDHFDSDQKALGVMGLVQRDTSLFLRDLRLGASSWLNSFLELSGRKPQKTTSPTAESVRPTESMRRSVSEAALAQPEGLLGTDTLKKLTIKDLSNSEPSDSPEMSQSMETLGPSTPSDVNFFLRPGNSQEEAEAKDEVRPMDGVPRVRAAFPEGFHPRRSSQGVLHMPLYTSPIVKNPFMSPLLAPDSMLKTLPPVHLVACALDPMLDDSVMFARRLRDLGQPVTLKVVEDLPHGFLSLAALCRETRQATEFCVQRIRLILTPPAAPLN
Description: (§1) Neutral TG lipase activity was measured with triolein as substrate containing [9,10-3H(N)]-triolein (NEN Life Science Products) as radioactive tracer. The substrate for TG lipase activity was prepared by sonication (Virsonic 475) exactly as describeded by Holm et al. (30). Cells were disrupted on ice in lysis buffer (0.25 M sucrose, 1 mM EDTA, 1 mM dithiothreitol, 20 μg/ml leupeptin, 2 μg/ml antipain, 1 μg/ml pepstatin, pH 7) by sonication (Virsonic 475). The cytosolic infranatants were obtained after centrifugation at […], at 4° C. for 60 min. The reaction was performed in a water bath at 37° C. for 60 min with 0.1 ml substrate and 0.1 ml infranatant. The reaction was terminated by adding 3.25 ml of methanol/chloroform/heptane (10:9:7) and 1 ml of 0.1 M potassium carbonate, 0.1 M boric acid, pH 10.5. After centrifugation (800 g, 20 min) the radioactivity in 1 ml of the upper phase was determined by liquid scintillation counting.
A recombinant adenovirus coding for His-tagged ATGL or HSL was used to infect HepG2 cells. The infection led to a 7- and 12-fold increase in TG hydrolase activity for HSL and ATGL, respectively, compared to LacZ-infected cells. For activity assays, the cytosolic fractions of the cells were incubated with a substrate containing radiolabeled triolein in the absence (control) or in the presence of the indicated salt concentrations.

[2] = target: T2, ATGL (Mus musculus, UniProt Q8BJ56); assay: TG hydrolase activity assay, cytosolic fractions of HepG2 cells infected with adenovirus coding for His-tagged ATGL, radiolabeled triolein substrate
T2 construct: a recombinant adenovirus encoding the His-tagged full length mouse ATGL cDNA was constructed; expressed in transfected cells; host or cells: HepG2 cells infected with recombinant adenovirus; cytosolic fraction
T2 sequence (Q8BJ56 1-486): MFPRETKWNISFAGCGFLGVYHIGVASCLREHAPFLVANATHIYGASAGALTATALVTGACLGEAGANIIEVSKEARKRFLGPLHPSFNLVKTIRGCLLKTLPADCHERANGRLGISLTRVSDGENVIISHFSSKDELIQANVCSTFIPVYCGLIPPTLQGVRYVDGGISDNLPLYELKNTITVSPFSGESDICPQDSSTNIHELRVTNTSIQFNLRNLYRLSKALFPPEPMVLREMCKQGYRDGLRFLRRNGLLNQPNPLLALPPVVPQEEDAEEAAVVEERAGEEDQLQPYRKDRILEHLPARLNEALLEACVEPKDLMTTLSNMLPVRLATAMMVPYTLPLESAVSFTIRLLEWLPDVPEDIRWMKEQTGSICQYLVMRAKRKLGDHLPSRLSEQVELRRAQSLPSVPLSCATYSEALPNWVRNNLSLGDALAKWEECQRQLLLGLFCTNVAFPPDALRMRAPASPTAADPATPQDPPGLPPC
Description: as §1
A recombinant adenovirus coding for His-tagged ATGL or HSL was used to infect HepG2 cells as described above. For activity assays, the cytosolic fractions of the cells were incubated with a substrate containing radiolabeled triolein in the absence (control) or in the presence of 50 μg/ml orlistat. It can be seen from FIG. 4 that addition of orlistat decreased in ATGL activity by 98%. […]

[3] = target: T3, human ATGL (hATGL) (Homo sapiens, UniProt Q96AD5); assay: TGH activity assay of hATGL with hCGI-58 expressed in COS-7 cells; details: human proteins; dose-dependent; FIG. 6f
T3 construct: The PCR products, containing the complete open reading frame, were ligated; expressed in transfected cells; host or cells: COS-7, transient transfection; cytoplasmic extracts
T3 sequence (Q96AD5 2-504): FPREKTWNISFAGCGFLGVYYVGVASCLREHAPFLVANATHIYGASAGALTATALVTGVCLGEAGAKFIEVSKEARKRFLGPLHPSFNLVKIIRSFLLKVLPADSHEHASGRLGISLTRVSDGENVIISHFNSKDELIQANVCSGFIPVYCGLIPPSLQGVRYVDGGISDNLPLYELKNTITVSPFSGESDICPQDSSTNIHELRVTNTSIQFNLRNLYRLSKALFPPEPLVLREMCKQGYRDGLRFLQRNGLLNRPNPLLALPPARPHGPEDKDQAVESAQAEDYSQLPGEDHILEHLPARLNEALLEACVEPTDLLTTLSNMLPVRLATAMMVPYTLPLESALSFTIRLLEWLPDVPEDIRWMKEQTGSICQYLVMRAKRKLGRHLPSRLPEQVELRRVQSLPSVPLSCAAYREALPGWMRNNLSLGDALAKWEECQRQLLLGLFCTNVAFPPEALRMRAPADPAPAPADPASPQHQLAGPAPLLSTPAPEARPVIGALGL
T3 sequence (Q8WTS1 1-349 partner): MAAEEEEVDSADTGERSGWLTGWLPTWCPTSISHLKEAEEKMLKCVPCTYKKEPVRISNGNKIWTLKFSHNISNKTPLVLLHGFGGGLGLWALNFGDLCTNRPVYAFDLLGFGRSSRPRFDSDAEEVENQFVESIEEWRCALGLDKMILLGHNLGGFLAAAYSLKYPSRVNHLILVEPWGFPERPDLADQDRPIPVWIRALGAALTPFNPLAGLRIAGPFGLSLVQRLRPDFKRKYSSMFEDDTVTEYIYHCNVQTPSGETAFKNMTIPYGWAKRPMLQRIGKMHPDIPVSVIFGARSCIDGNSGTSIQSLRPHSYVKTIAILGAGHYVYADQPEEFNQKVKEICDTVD
Excerpt: In comparison, transfection of cells with ATGL and HSL increased TGH activities 4- and 9-fold, respectively. In order to investigate whether the effect of CGI-58 is due to endogenous TGH activity of CGI-58 or if the protein affects the activity of other lipases, the extracts of CGI-58 and ATGL or HSL-expressing cells were mixed together and subjected to TGH activity determinations (FIG. 6c). […] The activation of ATGL by CGI-58 could also be monitored on the molecular level using the fluorescently labeled lipase-inhibitor NBD-snl TG. By mimicking a TG molecule, this inhibitor covalently binds to active lipases. […]
Expression ofrecombinant proteins in cultured cells for CGI-58 investigations—Monkey embryonic kidney cells (COS-7, ATCC CRL-1651) were maintained in Dulbecco's minimal essential medium (DMEM) (Gibco, Invitrogen life technologies, Carlsbad, Calif.) containing 10% fetal calf serum (FCS) (Sigma-Aldrich Chemie GmbH) and antibiotics at 37° C. in humidified air (89-91% saturation) and 5% C02. […] Cells were analyzed two days after transfection.
FIG. 6. […] (a) His-tagged proteins were detected in cytoplasmic extracts of transfected cells by Western blotting using a monoclonal anti-His antibody. (b) TGH activity of cytoplasmic extracts of transfected cells was determined using a radiolabeled triolein substrate. […] The molar ratio ATGL/CGI-58 was determined as described in (d).

Molecule: [Cl-].[K+] [KCl, potassium chloride]
change in HSL activity [1]: −68%
change in ATGL activity (stimulated) ([2]; 1M KCl vs absence (control), FIG. 5): +84%

Molecule: CCCCCCCCCCC[C@@H](C[C@@H]1OC(=O)[C@H]1CCCCCC)OC(=O)[C@H](CC(C)C)NC=O [orlistat]
decrease in ATGL activity ([2]; 50 μg/ml orlistat vs absence (control), FIG. 4): 98%

magnitude of the maximal effect on ATGL activation [3]: 6 fold
B1: hCGI-58: human CGI-58 expressed in COS-7 cells (protein, UniProt Q8WTS1 2-349, looked up)
1-acylglycerol-3-phosphate …: AAEEEEVDSADTGERSGWLTGWLPTWCPTSISHLKEAEEKMLKCVPCTYKKEPVRISNGNKIWTLKFSHNISNKTPLVLLHGFGGGLGLWALNFGDLCTNRPVYAFDLLGFGRSSRPRFDSDAEEVENQFVESIEEWRCALGLDKMILLGHNLGGFLAAAYSLKYPSRVNHLILVEPWGFPERPDLADQDRPIPVWIRALGAALTPFNPLAGLRIAGPFGLSLVQRLRPDFKRKYSSMFEDDTVTEYIYHCNVQTPSGETAFKNMTIPYGWAKRPMLQRIGKMHPDIPVSVIFGARSCIDGNSGTSIQSLRPHSYVKTIAILGAGHYVYADQPEEFNQKVKEICDTVD
